Laboratory results reported in article PMC6544242, “Development and validation of a multiplex UHPLC-MS/MS method for the determination of the investigational antibiotic against multi-resistant tuberculosis macozinone (PBTZ169) and five active metabolites in human plasma” (PLoS ONE, 2019).
Where two headings read alike, the source gives them in different places.

Columns and labels:
[1] = human
[2] = processed extract sample, 24h
[3] = tested on: Mycobacterium tuberculosis; conditions: not measured in this paper, cited from earlier work
[4] = human, 6 h
[5] = Phase Ia clinical pharmacokinetic trial, plasma levels in healthy volunteers; conditions: human
Procedure: The phase 1a clinical study assessing the safety and pharmacokinetics of PBTZ169 in healthy volunteers (NCT03423030), was performed at the Service of Clinical Pharmacology of the Lausanne University Hospital and was approved on 06.09.2017 (2017–01241) by the Ethics Committee of the Canton of Vaud (CER-VD) and on 17.11.2017 (2017DR1171) by Swissmedic. All volunteers gave their written informed consent.
The concentration measured in this plasma sample is 464 ng/mL, 147 ng/mL, 13 ng/mL, 12 ng/mL and 2 ng/mL for PBTZ169, Met 3-OH, Met 3-oxo, Met amino and Met 1-OH, respectively. […] Of note, measured plasma levels were multiplied by the factor 1.1 accounting for the blood 10:1 dilution due to citrate solution.

[6] = Long-term stability in plasma; type: in vitro ADME, human; conditions: -20°C and -80°C
Procedure: Long-term stability in plasma. Stability in citrated plasma stored at -20°C and -80°C in suitable tubes for long-term storage (1, 3, 6 and 12 months) was evaluated at 1, 10, 100 and 1000 ng/mL. Deviations of the mean concentrations (n = 3) of samples measured at each time points from the nominal concentrations were calculated.

[7] = type: physicochemical; conditions: DMSO:MeOH (1:1 v/v), -20°C
Procedure: Each compound was independently weighed and the corresponding powder dissolved in the required volume of DMSO to give a 1 mg/mL stock solution of the compound that was sonicated for 5 minutes. The stock solution used for PBTZ169 was corrected for salt form of the analyte by applying the weighing factor (0.926). Due to the high purity of the PBTZ169 and the five metabolites, no additional correcting factors were applied for preparing compounds stock solutions. Stock solutions were prepared in 5 mL PP tubes and stored at -20°C. The stability of these solutions was verified over a period of 6 months (mean bias < 8%) and of 9 months (mean bias < 9%)
PBTZ169 and metabolites mixture solutions. Two distinct working solutions (WS) including PBTZ169 together with its five active metabolites were prepared: one for calibration standards and one for validation standards/quality control (QC) samples. Working solutions including all the analytes at 100 μg/mL were obtained by adding the required volumes of compounds stock solutions (50 μL) to 200 μL of a DMSO/MeOH (1:1 v/v) mixture in safe-lock 1.5 mL PP tubes. Spiking solutions for calibration, validation standards and QCs at the appropriate concentrations were prepared by applying sequential dilutions in DMSO/MeOH (1:1 v/v) mixture starting from the dedicated WS in safe-lock 1.5 mL PP tubes and thoroughly mixed. […]

Row | SMILES | % from t0 ([1]; 1 h, 10 ng/mL) | % from t0 ([1]; 1 h, 20 ng/mL) | % from t0 ([1]; 1 h, 50 ng/mL) | % from t0 ([1]; 1 h, 100 ng/mL) | % from t0 ([1]; 1 h, 200 ng/mL) | % from t0 ([1]; 1 h, 500 ng/mL) | % from t0 ([1]; 2 h, 10 ng/mL) | % from t0 ([1]; 2 h, 20 ng/mL) | % from t0 ([1]; 2 h, 50 ng/mL) | % from t0 ([1]; 2 h, 100 ng/mL) | % from t0 ([1]; 2 h, 200 ng/mL) | % from t0 ([1]; 2 h, 500 ng/mL) | % from t0 ([1]; 4 h, 10 ng/mL) | % from t0 ([1]; 4 h, 20 ng/mL) | % from t0 ([1]; 4 h, 50 ng/mL) | % from t0 ([1]; 4 h, 100 ng/mL) | % from t0 ([1]; 4 h, 200 ng/mL) | % from t0 ([1]; 4 h, 500 ng/mL) | % from t0 ([2]; 4°C, level H (QC 1500 ng/mL)) | anti-TB activity in vitro (active / inactive) [3] | further results
1 | O=C1CCCC(CN2CCN(c3nc(=O)c4cc(C(F)(F)F)cc([N+](=O)[O-])c4s3)CC2)C1 (centres unmarked) [Met 3-oxo] | -1% | -6% | -22% | 0% | -9% | -22% | -5% | -9% | -32% | -5% | -11% | -31% | -9% | -15% | -51% | -10% | -18% | -50% | -2% | active | concentration deviation in whole blood ([1]; 4 h): exceeded the accepted -15% limit; % from t0 ([2]; 4°C, level L (QC 2 ng/mL)): -14%; % from t0 ([2]; 4°C, level M (QC 150 ng/mL)): -9%; % from t0 ([2]; RT, level H (QC 1500 ng/mL)): -10%; % from t0 ([2]; RT, level L (QC 2 ng/mL)): -58%; % from t0 ([2]; RT, level M (QC 150 ng/mL)): -37%; % from freshly processed samples (n=2) ([4]; 0.2 ng/mL): 6%; % from freshly processed samples (n=2) ([4]; 0.5 ng/mL): -14%; % from freshly processed samples (n=2) ([4]; 1 ng/mL): -2%; % from freshly prepared samples ([4]; 2 ng/mL): -4%; % from freshly processed samples (n=2) ([4]; 2 ng/mL): -10%; % from freshly processed samples (n=2) ([4]; 50 ng/mL): -6%; % from freshly prepared samples ([4]; 150 ng/mL): -4%; % from freshly processed samples (n=2) ([4]; 500 ng/mL): -4%; % from freshly processed samples (n=2) ([4]; 1000 ng/mL): 0%; % from freshly prepared samples ([4]; 1500 ng/mL): -4%; % from freshly processed samples (n=2) ([4]; 2000 ng/mL): -1%
2 | O=C(C1CCCCC1)N1CCN(c2nc(=O)c3cc(C(F)(F)F)cc([N+](=O)[O-])c3s2)CC1 [Met oxo] | 1% | 1% | -1% | -1% | 0% | -5% | -3% | -4% | -8% | -3% | 1% | -5% | -1% | 0% | -6% | -4% | 1% | -8% | 4% | active | detection in vivo in plasma [5]: not detected; % from t0 ([2]; 4°C, level L (QC 2 ng/mL)): -3%; % from t0 ([2]; 4°C, level M (QC 150 ng/mL)): 5%; % from t0 ([2]; RT, level H (QC 1500 ng/mL)): 25%; % from t0 ([2]; RT, level L (QC 2 ng/mL)): 6%; % from t0 ([2]; RT, level M (QC 150 ng/mL)): 29%; % from freshly processed samples (n=2) ([4]; 0.5 ng/mL): -11%; % from freshly processed samples (n=2) ([4]; 1 ng/mL): -12%; % from freshly prepared samples ([4]; 2 ng/mL): -6%; % from freshly processed samples (n=2) ([4]; 2 ng/mL): -6%; % from freshly processed samples (n=2) ([4]; 50 ng/mL): -10%; % from freshly prepared samples ([4]; 150 ng/mL): -8%; % from freshly processed samples (n=2) ([4]; 500 ng/mL): -8%; % from freshly processed samples (n=2) ([4]; 1000 ng/mL): -3%; % from freshly prepared samples ([4]; 1500 ng/mL): -5%; % from freshly processed samples (n=2) ([4]; 2000 ng/mL): -3%
3 | O=c1nc(N2CCN(CC3(O)CCCCC3)CC2)sc2c([N+](=O)[O-])cc(C(F)(F)F)cc12 [Met 1-OH] | 4% | 3% | -1% | 2% | -1% | -4% | 1% | -2% | -4% | 0% | -3% | -6% | -1% | 0% | -9% | -2% | -4% | -11% | -2% | active | plasma levels in volunteers ([5]; in vivo): below 0.5 ng/mL; % from t0 ([2]; 4°C, level L (QC 2 ng/mL)): -12%; % from t0 ([2]; 4°C, level M (QC 150 ng/mL)): -9%; % from t0 ([2]; RT, level H (QC 1500 ng/mL)): -12%; % from t0 ([2]; RT, level L (QC 2 ng/mL)): -55%; % from t0 ([2]; RT, level M (QC 150 ng/mL)): -33%; % from freshly processed samples (n=2) ([4]; 0.5 ng/mL): -15%; % from freshly processed samples (n=2) ([4]; 1 ng/mL): -9%; % from freshly prepared samples ([4]; 2 ng/mL): -4%; % from freshly processed samples (n=2) ([4]; 2 ng/mL): -4%; % from freshly processed samples (n=2) ([4]; 50 ng/mL): -1%; % from freshly prepared samples ([4]; 150 ng/mL): -3%; % from freshly processed samples (n=2) ([4]; 500 ng/mL): -1%; % from freshly processed samples (n=2) ([4]; 1000 ng/mL): 0%; % from freshly prepared samples ([4]; 1500 ng/mL): -2%; % from freshly processed samples (n=2) ([4]; 2000 ng/mL): -1%
4 | O=c1nc(N2CCN(CC3CCCCC3O)CC2)sc2c([N+](=O)[O-])cc(C(F)(F)F)cc12 (centres unmarked) [Met 2-OH] | 1% | 1% | -10% | 2% | -2% | -9% | -1% | -1% | -17% | -2% | -5% | -15% | -3% | -2% | -30% | -3% | -6% | -26% | -4% | active | detection in vivo in plasma [5]: not detected; % from t0 ([2]; 4°C, level L (QC 2 ng/mL)): -16%; % from t0 ([2]; 4°C, level M (QC 150 ng/mL)): -10%; % from t0 ([2]; RT, level H (QC 1500 ng/mL)): -18%; % from t0 ([2]; RT, level L (QC 2 ng/mL)): -61%; % from t0 ([2]; RT, level M (QC 150 ng/mL)): -39%; % from freshly processed samples (n=2) ([4]; 0.5 ng/mL): -16%; % from freshly processed samples (n=2) ([4]; 1 ng/mL): -6%; % from freshly prepared samples ([4]; 2 ng/mL): -8%; % from freshly processed samples (n=2) ([4]; 2 ng/mL): -6%; % from freshly processed samples (n=2) ([4]; 50 ng/mL): -4%; % from freshly prepared samples ([4]; 150 ng/mL): -4%; % from freshly processed samples (n=2) ([4]; 500 ng/mL): -3%; % from freshly processed samples (n=2) ([4]; 1000 ng/mL): 0%; % from freshly prepared samples ([4]; 1500 ng/mL): -4%; % from freshly processed samples (n=2) ([4]; 2000 ng/mL): -2%
5 | Nc1cc(C(F)(F)F)cc2c(=O)nc(N3CCN(CC4CCCCC4)CC3)sc12 [Met amino] |  |  |  |  |  |  |  |  |  |  |  |  |  |  |  |  |  |  |  | inactive | time spiked plasma samples stability has been verified [6]: 1 month; time working solutions are stable [7]: ≥ 3 months; anti-TB activity in vitro (active / inactive) ([3]; listed as amino metabolite): devoid of anti-TB activity
6 | O=c1nc(N2CCN(CC3CCCC(O)C3)CC2)sc2c([N+](=O)[O-])cc(C(F)(F)F)cc12 (centres unmarked) [Met 3-OH] | 6% | 8% | 12% | 5% | 5% | 8% | 7% | 7% | 12% | 4% | 1% | 9% | 4% | 12% | 15% | 4% | 6% | 1% | -2% | active | % from t0 ([2]; 4°C, level L (QC 2 ng/mL)): -14%; % from t0 ([2]; 4°C, level M (QC 150 ng/mL)): -9%; % from t0 ([2]; RT, level H (QC 1500 ng/mL)): -14%; % from t0 ([2]; RT, level L (QC 2 ng/mL)): -59%; % from t0 ([2]; RT, level M (QC 150 ng/mL)): -36%; % from freshly processed samples (n=2) ([4]; 0.2 ng/mL): 3%; % from freshly processed samples (n=2) ([4]; 0.5 ng/mL): -14%; % from freshly processed samples (n=2) ([4]; 1 ng/mL): -13%; % from freshly prepared samples ([4]; 2 ng/mL): -7%; % from freshly processed samples (n=2) ([4]; 2 ng/mL): -10%; % from freshly processed samples (n=2) ([4]; 50 ng/mL): -8%; % from freshly prepared samples ([4]; 150 ng/mL): -5%; % from freshly processed samples (n=2) ([4]; 500 ng/mL): -6%; % from freshly processed samples (n=2) ([4]; 1000 ng/mL): -1%; % from freshly prepared samples ([4]; 1500 ng/mL): -4%; % from freshly processed samples (n=2) ([4]; 2000 ng/mL): -2%
